Experimental data from patent US6537804B1, “BCR-ABL directed compositions and uses for inhibiting Philadelphia chromesome stimulated cell growth” (Board of Regents, The University of Texas Systems, priority 1995, dated 2003).

Key:
Type in all cases: cell-based, human
[1] = tested on: p160 BCR/p185 BCR-ABL complexes; assay: Co-precipitated Bcr-Abl in anti-BCR (1256-1271) immunokinase assay of treated SUP-B15 cells; conditions: antisense compared to sense treated
Procedure: (§1) SUP B15 cells were treated with anti-sense BCR oligonucleotides as in FIG. 12. Equal amounts of cells processed from sense and antisense treated cultures were harvested at day 7. Cells were analyzed for Bcr protein and Bcr/Bcr-Abl complexes by assaying with an antibody to the carboxy terminal of Bcr, as described (Liu et al., 1993). Lane 1 is an SDS gel pattern of the sense treated culture; lane 2 is the assay performed with peptide-blocked antibody. Lane 3 is the pattern from anti-sense treated culture; lane 4 is the peptide-blocked control. […] Quantitation measurements indicate that the level of Bcr protein was reduced about 10-fold by antisense treatment compared to sense, when normalized for the amount of Abl protein in the cultures.
(§2) In this study, equal amounts of the sense and the antisense oligonucleotide treated B15 cells were analyzed.
(§3) These antibodies detect Bcr directly but not Bcr-Abl protein. However because Bcr can complex with Bcr-Abl, this assay also detects Bcr-Abl which is co-precipitated along with Bcr.

M3.16 cells = assay: Growth of M3.16 cells, trypan blue exclusion; conditions: DMEM 10% FCS, 10 μM at day 1, half at day 5, light microscopy at day 9
Procedure: FIG. 20B, M3.16 cells cultured in 10% FCS containing DMEM media with either the 3′ BCR antisense oligonucleotides (open squares) or the sense oligonucleotide (closed squares) as above. Oligonucleotides were added at day 1 at a final concentration of 10 μM and added again at day 5 at half of the initial concentration. Cell viability was determined by trypan blue dye exclusion. The data are the mean +/−SEM of a triplicate analysis.
For this particular study, the cell number was followed up for a longer period of time (11 days) and oligonucleotides were added again at day 5 at half of the initial concentration.

c-Abl = assay: Western blotting with anti-Abl monoclonal antibody 8E9 of treated SUP-B15 cells
Procedure: (§4) SUP-B15 cells express p185 BCR-ABL; they were derived from a patient with Philadelphia chromosome-positive ALL. One-tenth of the cells harvested in the study shown in FIG. 13 was assayed for Bcr-Abl expression by Western blotting with the anti-Abl monoclonal antibody 8E9. […] Similarly, the Abl protein was reduced about 26% in the anti-sense treated culture compared to sense. Quantitation was done by a densitometer SI unit (Molecular Dynamics).
Using c-Abl as an internal control, the actual reduction of p160 BCR in B15 cells by the antisense treatment is about 10 fold.

p160 BCR = assay: Immunokinase assay with anti-BCR (1256-1271) on oligonucleotide treated SUP-B15 cells
Procedure: as §1
The effects of the sense and antisense 3′ BCR oligonucleotides were tested on BCR expression in SUP-B15 cells, a cell line derived from a Ph^1-positive acute lymphocytic leukemia patient that expresses p185 BCR-ABL. Immunokinase assays were performed with anti-BCR (1256-1271) peptide antibody (the antibody detects Bcr proteins but not Bcr-Abl proteins) to determine the level of BCR expression in B15 cells after 7 days treatment with either the sense or antisense 3′ BCR oligonucleotides (FIG. 13, lanes 1 and 3).
as §3
Incubation of these immune complexes with labeled ATP causes tyrosine phosphorylation of Bcr by Bcr-Abl and autophosphorylation of Bcr-Abl (Liu et al., 1993). […] Using Abl Western blot data as an internal control for mass, the specific reduction in Bcr is estimated to be about 10-fold.

SUP-B15 cells [2] = assay: Growth of SUP-B15 cells, trypan blue exclusion
Procedure: FIG. 20A, B15 cells cultured in 20% FCS containing RPMI media with either the 3′ BCR antisense oligonucleotides (10 μM at day 1) (open squares) or the sense oligonucleotides (10 μM at day 1) (closed squares).
The biological effects of the 3′ BCR antisense oligonucleotide treatment were tested on SUP-B15 cells. SUP-B15 cells were seeded in triplicate wells at a concentration of 1.6×10^5 cells/ml in a 200 μl volume of RPMI media supplemented with 20% FCS. Oligonucleotides were added to the cells at a final concentration of 10 μM. Cell number was monitored by trypan blue exclusion assay for 9 days. The mean cell number of the triplicates was determined each day (FIG. 20A).

SUP-B15 cells [3] = assay: Survival of SUP-B15 cells in low serum, trypan blue exclusion; conditions: 5% FCS, 10 μM
Procedure: SUP-B15 cells (2×10^6 cells) were maintained in RPMI medium containing 5% fetal calf serum. Cells will not grow under these conditions and will slowly die off since cell growth requires 20% serum. Cells were treated with the 3′ BCR anti-sense (open squares) or sense oligo (closed squares) at a concentration of 10 μM. The number of viable cells was determined by trypan blue dye exclusion. The data are expressed as the mean (+/−SEM) of three replicates.
B15 cells were cultured in a low serum containing media [5% fetal calf serum (FCS)]. These cells normally require 20% FCS. A batch of B15 cells (2.2×10^6/ml) was cultured in RPMI containing 5% FCS. 200 μl of this suspension was seeded into each well of a 96 well culture plate. Either the antisense or sense oligonucleotides were added to the culture at a final concentration of 10 μM. The cell numbers were determined as an average of the triplicates and plotted in FIG. 14.

P185 BCR-ABL = assay: Western blotting with anti-Abl monoclonal antibody 8E9 of treated SUP-B15 cells
Procedure: as §4, §2

## 5′ATCATCACCGACACATCC 3′ (phosphotriester linkages at both ends, further chemistry not given here) [3′ BCR antisense oligonucleotide]
[1]
  Amount of p160 BCR/p185 BCR-ABL complexes: reduced
M3.16 cells
  Confluence compared to sense treated cells: more confluent
c-Abl; Western blot 8E9, densitometer
  Reduction in Abl protein, anti-sense compared to sense: about 26%
c-Abl; quantitation of FIG. 12
  Reduction of c-Abl level, antisense versus sense treated cells: ~1.35 fold
p160 BCR; 7 days treatment
  Level of BCR protein, antisense compared with sense treated cells: much lower levels
p160 BCR; day 7, antisense compared to sense
  Reduction of p160 BCR normalized for the amount of Abl protein (c-Abl as internal control): about 10 fold
p160 BCR; day 7, densitometer quantitation of FIG. 13 lanes 1 and 3
  Reduction of p160 BCR, antisense versus sense treated cells: about 14 times
p160 BCR; seven days, phosphorimager analyses
  Reduction of the amount of Bcr by anti-sense: about 14 fold
SUP-B15 cells [2]; RPMI 20% FCS, 10 μM, 9 days
  Growth density compared to sense oligonucleotide treatment: sustained a higher growth density
SUP-B15 cells [2]; seven days in culture
  Live cells relative to sense treated cultures: twice
SUP-B15 cells [3]
  Survival compared to sense oligonucleotide treatment: increased survival
SUP-B15 cells [3]; after five days of treatment
  Number of viable cells relative to sense-treated cells: about twice
P185 BCR-ABL; Western blot 8E9, densitometer
  Reduction in Bcr-Abl protein, anti-sense compared to sense: 35%
P185 BCR-ABL; Western blot with anti-Abl monoclonal antibody
  Expression of p185 BCR-ABL: not significantly altered
P185 BCR-ABL; quantitation of FIG. 12
  Reduction of Bcr-Abl level, antisense versus sense treated cells: about 1.6 fold
